The target of this experiment is human APJ receptor (Homo sapiens (Human), UniProt P35414). The experiment is described as follows: [35S]GTPγS binding assay on membranes from CHO cells stably expressing human APJ receptor. Format: biochemical. Particulars: membranes of CHO cells stably expressing human APJ receptor, read-out: Activity hAPJ SPA EC50 IP. In outline:
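[35S]GTPγS binding measured on membranes from CHO cells stably expressing FLAG-tagged human APJ, with GDP, MgCl2 and NaCl levels optimized beforehand. Incubation 90 min at RT, imager read-out; EC50 from non-linear regression, averaged over several independent experiments.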
(Binding of GTPγS marks nucleotide exchange on a G protein.)
Sequence of human APJ receptor (P35414 whole entry): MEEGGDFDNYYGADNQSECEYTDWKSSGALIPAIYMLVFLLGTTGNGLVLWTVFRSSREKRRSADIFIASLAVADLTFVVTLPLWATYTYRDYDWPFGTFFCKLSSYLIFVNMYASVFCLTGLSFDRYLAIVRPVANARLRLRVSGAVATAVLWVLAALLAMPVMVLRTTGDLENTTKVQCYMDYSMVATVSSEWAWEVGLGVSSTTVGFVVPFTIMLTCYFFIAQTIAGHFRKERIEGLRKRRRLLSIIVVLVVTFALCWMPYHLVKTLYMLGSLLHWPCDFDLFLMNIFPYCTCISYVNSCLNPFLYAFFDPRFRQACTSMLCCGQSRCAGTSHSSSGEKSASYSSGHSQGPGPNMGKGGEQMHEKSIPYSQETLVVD
Take `COc1cccc(-c2nnc(NS(=O)(=O)[C@@H](C)[C@H](C)c3ncc(Cl)cn3)n2[C@H](c2conc2C)C2CC2)n1` (single isomer, unassigned) [Example 229.0, (2S,3R)-3-(5-chloro-2-pyrimidinyl)-N-(4-((S)-cyclopropyl(3-methyl-1,2-oxazol-4-yl)methyl)-5-(6-methoxy-2-pyridinyl)-4H-1,2,4-triazol-3-yl)-2-butanesulfonamide or (2S,3R)-3-(5-chloro-2-pyrimidinyl)-N-(4-((R)-cyclopropyl(3-methyl-1,2-oxazol-4-yl)methyl)-5-(6-methoxy-2-pyridinyl)-4H-1,2,4-triazol-3-yl)-2-butanesulfonamide]: the EC50 was 1.2 nM. On to `CC[C@H]([C@@H]1CCCCO1)n1c(NS(=O)(=O)[C@@H](C)[C@H](OC)c2ncc(C)cn2)nnc1-c1cncc(C)c1` (single isomer, unassigned) [Example 334.0], for which the concentration giving a half-maximal response (EC50) turned out to be 29 nM. The figure for `COc1cccc(-c2nnc(NS(=O)(=O)[C@@H](C)[C@H](C)c3ncc(Cl)cn3)n2[C@H](C)c2csnn2)n1` (single isomer, unassigned) [Example 295.0, (2S,3R)-N-(4-((R)-1-(1,2,3-thiadiazol-4-yl)ethyl)-5-(6-methoxypyridin-2-yl)-4H-1,2,4-triazol-3-yl)-3-(5-chloropyrimidin-2-yl)butane-2-sulfonamide or (2S,3R)-N-(4-((S)-1-(1,2,3-thiadiazol-4-yl)ethyl)-5-(6-methoxypyridin-2-yl)-4H-1,2,4-triazol-3-yl)-3-(5-chloropyrimidin-2-yl)butane-2-sulfonamide] is 6.4 nM; for `COc1cccc(-c2nnc(NS(=O)(=O)[C@@H](C)[C@H](OC)c3ncc(Cl)cn3)n2C2C3(CC3)C23CC3)n1` [Example 163.0, (1R,2S)-1-(5-Chloropyrimidin-2-yl)-N-(4-(dispiro[2.0.24.13]heptan-7-yl)-5-(6-methoxypyridin-2-yl)-4H-1,2,4-triazol-3-yl)-1-methoxypropane-2-sulfonamide] it is 52 nM; for `COC[C@H](C)n1c(NS(=O)(=O)[C@@H](C)[C@H](OC)c2ncc(Cl)cn2)nnc1-c1cccc(OC)n1` [Example 48.0] it is 1.3 nM. The same measure for `COc1cccc(-c2nnc(NS(=O)(=O)[C@@H](C)[C@H](OC)c3ncc(Cl)cn3)n2Cc2cnoc2)n1` [Example 186.0, (1R,2S)-1-(5-chloropyrimidin-2-yl)-N-(4-(isoxazol-4-ylmethyl)-5-(6-methoxypyridin-2-yl)-4H-1,2,4-triazol-3-yl)-1-methoxypropane-2-sulfonamide]: 98 nM. In the case of `COCC(COC)n1c(NS(=O)(=O)[C@@H](C)[C@H](C)c2ncc(Cl)cn2)nnc1-c1cccnc1` [Example 19.0, (2S,3R)-3-(5-chloro-2-pyrimidinyl)-N-(4-(1,3dimethoxy-2-propanyl)-5-(3-pyridinyl)-4H-1,2,4-triazol-3-yl)-2-butanesulfonamide], the EC50 amounted to 26 nM. Turning to `COc1cccc(-c2nnc(NS(=O)(=O)[C@@H](C)[C@H](OC)c3ncc(Cl)cn3)n2[C@@H](C)c2c(C)noc2C)n1` (racemic) [Example 309.0, (1R,2S)-1-(5-chloropyrimidin-2-yl)-N-(4-((R)-1-(3,5-dimethylisoxazol-4-yl)ethyl)-5-(6-methoxypyridin-2-yl)-4H-1,2,4-triazol-3-yl)-1-methoxypropane-2-sulfonamide or (1R,2S)-1-(5-chloropyrimidin-2-yl)-N-(4-((S)-1-(3,5-dimethylisoxazol-4-yl)ethyl)-5-(6-methoxypyridin-2-yl)-4H-1,2,4-triazol-3-yl)-1-methoxypropane-2-sulfonamide], the EC50 stood at 9.2 nM. The figure for `COc1cccc(-c2nnc(NS(=O)(=O)[C@@H](C)[C@H](OC)c3ncc(Cl)cn3)n2[C@@H]2CC23CC3)n1` (single isomer, unassigned) [Example 90.0] is 6.2 nM.

Turning to `CO[C@H](c1ncc(Cl)cn1)[C@H](C)S(=O)(=O)Nc1nnc(-c2ccccn2)n1C(C)C` [Example 136.0, (1R,2S)-1-(5-chloro-2-pyrimidinyl)-1-methoxy-N-(4-(2-propanyl)-5-(2-pyridinyl)-4H-1,2,4-triazol-3-yl)-2-propanesulfonamide], the EC50 amounted to 57 nM. The figure for `CC[C@@H](c1c(C)noc1C)n1c(NS(=O)(=O)[C@@H](C)[C@H](OC)c2cnc(C)cn2)nnc1-c1cccc(OC)n1` (single isomer, unassigned) [Example 223.0, (1R,2S)-N-(4-((1R)-1-(3,5-dimethyl-1,2-oxazol-4-yl)propyl)-5-(6-methoxy-2-pyridinyl)-4H-1,2,4-triazol-3-yl)-1-methoxy-1-(5-methyl-2-pyrazinyl)-2-propanesulfonamide or (1R,2S)-N-(4-((1S)-1-(3,5-dimethyl-1,2-oxazol-4-yl)propyl)-5-(6-methoxy-2-pyridinyl)-4H-1,2,4-triazol-3-yl)-1-methoxy-1-(5-methyl-2-pyrazinyl)-2-propanesulfonamide] is 32 nM; for `COc1cccc(-c2nnc(NS(=O)(=O)[C@@H](C)[C@@H](OC(C)C)c3ncc(C)cn3)n2[C@@H](C)c2ccno2)n1` (single isomer, unassigned) [Example 217.0, (1S,2S)-N-(5-(6-methoxy-2-pyridinyl)-4-((1R)-1-(1,2-oxazol-5-yl)ethyl)-4H-1,2,4-triazol-3-yl)-1-(5-methyl-2-pyrimidinyl)-1-(2-propanyloxy)-2-propanesulfonamide or (1S,2S)-N-(5-(6-methoxy-2-pyridinyl)-4-((1S)-1-(1,2-oxazol-5-yl)ethyl)-4H-1,2,4-triazol-3-yl)-1-(5-methyl-2-pyrimidinyl)-1-(2-propanyloxy)-2-propanesulfonamide] it is 5.3 nM; for `CCc1cc(Cn2c(NS(=O)(=O)[C@@H](C)[C@@H](OC(C)C)c3ncc(C)cn3)nnc2-c2cccc(OC)n2)on1` [Example 294.0, (1S,2S)-N-(4-((3-ethylisoxazol-5-yl)methyl)-5-(6-methoxypyridin-2-yl)-4H-1,2,4-triazol-3-yl)-1-isopropoxy-1-(5-methylpyrimidin-2-yl)propane-2-sulfonamide] it is 5.4 nM.

With `COc1cccc(-c2nnc(NS(=O)(=O)[C@@H](C)[C@H](OC)c3ncc(Cl)cn3)n2[C@H]2C[C@H](OC)C2)n1` [Example 181.0, (1R,2S)-1-(5-chloro-2-pyrimidinyl)-1-methoxy-N-(4-(trans-3-methoxycyclobutyl)-5-(6-methoxy-2-pyridinyl)-4H-1,2,4-triazol-3-yl)-2-propanesulfonamide], the EC50 was 190 nM.

Consider `[2H]C1([2H])C(n2c(NS(=O)(=O)[C@@H](C)[C@H](OC)c3ncc(Cl)cn3)nnc2-c2cccc(OC)n2)C1([2H])[2H]` [Example 148.0, (1R,2S)-1-(5-Chloropyrimidin-2-yl)-N-(4-(cyclopropyl-2,2,3,3-d4)-5-(6-methoxypyridin-2-yl)-4H-1,2,4-triazol-3-yl)-1-methoxypropane-2-sulfonamide], for which the EC50 came out at 6.8 nM.

For `CC[C@H]([C@@H]1CCCCO1)n1c(NS(=O)(=O)[C@@H](C)[C@H](OC)c2ncc(C)cn2)nnc1-c1cncc(C)c1` (single isomer, unassigned) [Example 335.0], the half-maximal effective concentration (EC50) was 14 nM. For the compound “(1R,2S)-1-(5-Chloropyrimidin-2-yl)-1-methoxy-N-(4-((1R,2R)-2-methoxycyclobutyl)-5-(6-methoxypyridin-2-yl)-4H-1,2,4-triazol-3-yl)propane-2-sulfonamide and (1R,2S)-1-(5-chloropyrimidin-2-yl)-1-methoxy-N-(4-((1S,2S)-2-methoxycyclobutyl)-5-(6-methoxypyridin-2-yl)-4H-1,2,4-triazol-3-yl)propane-2-sulfonamide [Example 155.0]”, the EC50 was found to be 3.1 nM. The same measure for `COc1cccc(-c2nnc(NS(=O)(=O)[C@@H](C)[C@H](OC)c3ncc(Cl)cn3)n2C[C@H]2CCCO2)n1` (single isomer, unassigned) [Example 279.0, (1R,2S)-1-(5-chloropyrimidin-2-yl)-1-methoxy-N-(5-(6-methoxypyridin-2-yl)-4-(((R)-tetrahydrofuran-2-yl)methyl)-4H-1,2,4-triazol-3-yl)propane-2-sulfonamide or (1R,2S)-1-(5-chloropyrimidin-2-yl)-1-methoxy-N-(5-(6-methoxypyridin-2-yl)-4-(((S)-tetrahydrofuran-2-yl)methyl)-4H-1,2,4-triazol-3-yl)propane-2-sulfonamide]: 75 nM; for `CCc1cc(Cn2c(NS(=O)(=O)[C@@H](C)[C@H](OC)c3ncc(Cl)cn3)nnc2-c2cccc(OC)n2)on1` [Example 292.0, (1R,2S)-1-(5-Chloropyrimidin-2-yl)-N-(4-((3-ethylisoxazol-5-yl)methyl)-5-(6-methoxypyridin-2-yl)-4H-1,2,4-triazol-3-yl)-1-methoxypropane-2-sulfonamide]: 2.4 nM; for `CC[C@H](c1cc(F)cc(F)c1)n1c(NS(=O)(=O)[C@@H](C)[C@H](OC)c2ncc(Cl)cn2)nnc1-c1cccc(OC)n1` (single isomer, unassigned) [Example 342.0, (1R,2S)-1-(5-chloropyrimidin-2-yl)-N-(4-((R)-1-(3,5-difluorophenyl)propyl)-5-(6-methoxypyridin-2-yl)-4H-1,2,4-triazol-3-yl)-1-methoxypropane-2-sulfonamide or (1R,2S)-1-(5-chloropyrimidin-2-yl)-N-(4-((S)-1-(3,5-difluorophenyl)propyl)-5-(6-methoxypyridin-2-yl)-4H-1,2,4-triazol-3-yl)-1-methoxypropane-2-sulfonamide]: 0.05 nM. Take `COc1cccc(-c2nnc(NS(=O)(=O)[C@@H](C)[C@H](OC)c3ncc(Cl)cn3)n2[C@H](C)c2cncs2)n1` (single isomer, unassigned) [Example 346.0, (1R,2S)-1-(5-chloropyrimidin-2-yl)-1-methoxy-N-(5-(6-methoxypyridin-2-yl)-4-((R)-1-(thiazol-5-yl)ethyl)-4H-1,2,4-triazol-3-yl)propane-2-sulfonamide or (1R,2S)-1-(5-chloropyrimidin-2-yl)-1-methoxy-N-(5-(6-methoxypyridin-2-yl)-4-((S)-1-(thiazol-5-yl)ethyl)-4H-1,2,4-triazol-3-yl)propane-2-sulfonamide]: the concentration for a half-maximal effect (EC50) was 4.4 nM.

The EC50 is the concentration at which the effect is half-maximal.
